{"source": "paper PMC11247499", "about": "“2,8-Disubstituted-1,5-naphthyridines as Dual Inhibitors of Plasmodium falciparum Phosphatidylinositol-4-kinase and Hemozoin Formation with In Vivo Efficacy” (Journal of Medicinal Chemistry, 2024)", "key": {"PvPI4K": {"target": "PvPI4K (Plasmodium vivax, UniProt A5KB26)", "sequence (A5KB26 entry or part of it)": "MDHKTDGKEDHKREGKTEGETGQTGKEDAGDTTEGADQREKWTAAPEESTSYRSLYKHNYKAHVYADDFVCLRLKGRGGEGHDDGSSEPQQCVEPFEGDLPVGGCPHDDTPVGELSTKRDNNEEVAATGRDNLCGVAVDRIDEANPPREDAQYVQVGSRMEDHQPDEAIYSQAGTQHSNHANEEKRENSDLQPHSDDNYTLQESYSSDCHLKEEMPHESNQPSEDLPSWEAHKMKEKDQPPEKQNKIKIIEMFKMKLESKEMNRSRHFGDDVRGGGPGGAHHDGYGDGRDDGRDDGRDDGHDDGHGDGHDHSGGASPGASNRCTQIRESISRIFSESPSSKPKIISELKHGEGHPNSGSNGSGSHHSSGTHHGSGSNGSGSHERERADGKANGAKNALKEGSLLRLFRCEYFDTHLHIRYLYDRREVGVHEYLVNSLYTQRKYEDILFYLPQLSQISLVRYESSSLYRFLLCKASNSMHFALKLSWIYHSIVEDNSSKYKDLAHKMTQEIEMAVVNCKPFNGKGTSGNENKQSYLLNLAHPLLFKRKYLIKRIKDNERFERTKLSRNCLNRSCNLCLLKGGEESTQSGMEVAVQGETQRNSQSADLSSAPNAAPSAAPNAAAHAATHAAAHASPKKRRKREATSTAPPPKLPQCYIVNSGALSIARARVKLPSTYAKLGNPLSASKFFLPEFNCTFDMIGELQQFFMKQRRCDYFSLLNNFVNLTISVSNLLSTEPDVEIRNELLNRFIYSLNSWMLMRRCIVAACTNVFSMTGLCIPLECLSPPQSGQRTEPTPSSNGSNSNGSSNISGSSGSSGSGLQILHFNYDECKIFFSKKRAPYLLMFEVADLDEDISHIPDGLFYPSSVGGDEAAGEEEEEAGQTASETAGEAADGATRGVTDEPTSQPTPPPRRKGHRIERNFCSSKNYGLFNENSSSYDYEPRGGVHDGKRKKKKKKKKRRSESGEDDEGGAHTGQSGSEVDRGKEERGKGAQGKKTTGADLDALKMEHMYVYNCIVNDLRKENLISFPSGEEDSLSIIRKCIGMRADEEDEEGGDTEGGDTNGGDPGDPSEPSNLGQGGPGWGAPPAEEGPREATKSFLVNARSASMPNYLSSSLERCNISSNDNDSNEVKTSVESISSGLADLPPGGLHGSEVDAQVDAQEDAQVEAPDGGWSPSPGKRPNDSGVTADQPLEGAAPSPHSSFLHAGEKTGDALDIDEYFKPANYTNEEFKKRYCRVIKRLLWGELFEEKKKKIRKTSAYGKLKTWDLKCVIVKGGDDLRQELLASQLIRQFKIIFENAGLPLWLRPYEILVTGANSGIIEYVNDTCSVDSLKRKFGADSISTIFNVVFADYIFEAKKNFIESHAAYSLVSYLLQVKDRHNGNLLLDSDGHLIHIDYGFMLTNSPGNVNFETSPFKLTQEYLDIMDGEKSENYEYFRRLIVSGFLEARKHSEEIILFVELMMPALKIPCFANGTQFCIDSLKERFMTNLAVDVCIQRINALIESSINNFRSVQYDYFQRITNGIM", "assay": "biochemical", "settings": "purified recombinant PvPI4K, 10 μM ATP, ADP-Glo; mean of N ≥ 2; read-out: PvPI4K IC50 ± SD"}, "[1]": {"test_system": "P. falciparum NF54 strain", "assay": "Antiplasmodial activity, parasite lactate dehydrogenase assay, NF54", "type": "cell-based, Plasmodium falciparum", "settings": "Plasmodium falciparum, NF54, 72 h, parasite lactate dehydrogenase assay over 72 h; read-out: Pf IC50 ± SD NF54"}, "[2]": {"test_system": "multidrug-resistant strain, K1", "assay": "Antiplasmodial activity, parasite lactate dehydrogenase assay, K1", "type": "cell-based, Plasmodium falciparum", "settings": "Plasmodium falciparum, K1, 72 h, parasite lactate dehydrogenase assay over 72 h; read-out: Pf IC50 ± SD K1"}, "[3]": {"test_system": "Chinese Hamster Ovary (CHO) cell line", "assay": "cells", "type": "cell-based", "settings": "Cricetulus griseus, CHO; MTT assay over 48h; read-out: CHO IC50"}, "Dd2": {"test_system": "Dd2", "assay": "microbe, parasite or virus in culture", "type": "cell-based", "settings": "Plasmodium falciparum, DD2, 72 h, read-out: Dd2 IC50 ± SD"}, "Dd2_PI4K_CNV": {"test_system": "Dd2_PI4K_CNV", "assay": "microbe, parasite or virus in culture", "type": "cell-based", "settings": "Plasmodium falciparum, 72 h, read-out: Dd2_PI4K_CNV IC50"}, "β-hematin (βH) formation": {"test_system": "β-hematin (βH) formation", "assay": "NP-40 mediated cell-free β-hematin assay", "settings": "read-out: β-hematin IC50; cell-free NP-40 detergent-mediated assay; n = 2"}, "[4]": {"assay": "Solubility, miniaturized shake flask method", "settings": "aqueous solution"}, "in vivo": {"assay": "in vivo", "settings": "zebrafish, in vivo"}, "zebrafish embryos": {"test_system": "zebrafish embryos", "assay": "in vivo"}}}
{"smiles": "O[C@H]1CNCC[C@@H]1Nc1ccnc2ccc(-c3ccc(C(F)(F)F)nc3)nc12", "note": "(racemic) [Compound 28, rac-trans-4-[[6-[6-(Trifluoromethyl)pyridin-3-yl]-1,5-naphthyridin-4-yl]amino]piperidin-3-ol]", "values": [{"measurement": "IC50", "setting": "PvPI4K", "result": "967 ± 163", "unit": "nM"}, {"measurement": "IC50", "setting": "[1]", "result": "168 ± 55", "unit": "nM"}, {"measurement": "IC50", "setting": "[2]", "result": "624 ± 76", "unit": "nM"}, {"measurement": "IC50", "setting": "[3]", "result": "> 50000", "unit": "nM"}, {"measurement": "IC50", "setting": "Dd2", "result": "212 ± 127", "unit": "nM"}, {"measurement": "IC50", "setting": "Dd2_PI4K_CNV", "result": "182 ± 44", "unit": "nM"}, {"measurement": "IC50", "setting": "β-hematin (βH) formation", "result": "95000 ± 16000", "unit": "nM"}, {"measurement": "solubility at 20 h", "setting": "[4]", "result": 200, "unit": "µM"}]}
{"smiles": "CCN(CC)c1ccc(C=O)cc1", "note": "[DEAB, Diethylaminobenzaldehyde]", "values": [{"measurement": "AC50", "setting": "in vivo; 50% larvae population show a teratogenic phenotype", "result": 1000, "unit": "nM"}, {"measurement": "LC50 at 96 h", "setting": "in vivo; concentration at which 50% of larvae die at 96 h post fertilization", "result": 4600, "unit": "nM"}, {"measurement": "teratogen", "setting": "zebrafish embryos; classification", "result": "yes"}, {"measurement": "TI (teratogenic index)", "setting": "zebrafish embryos; ratio between LC50 and AC50, >3 classifies as teratogen", "result": 4.6}]}
